Data set [1] has as its target NK1 receptor (Meriones unguiculatus (Mongolian jird) (Gerbillus unguiculatus), UniProt Q5DUB1). Nature of the data set: Effect on GR73632-induced foot-tapping. It is filed as in vivo. Conditions: 0.3 mg/kg from the jugular vein, GR73632 after four hours, male gerbil. As to the method: (1) Effect on Foot-tapping
(§1) A male gerbil (Japan SLC) was anesthetized with isoflurane, and 0.3 mg/kg of a test compound was administered from the jugular vein. After four hours, GR73632 (5 pmol/5 μl), which is an NK1 receptor agonist, was administered into the cerebral ventricle at the part 1 mm lateral to and 4.5 mm below the bregma in the head, under anesthesia with isoflurane. After the administration, the gerbil was moved to an observation cage, and the foot-tapping period during five minutes after the recovery of the righting reflex was measured. The foot-tapping inhibition rate (%) of each test compound was calculated by the following equation. Foot-tapping inhibition rate (%)={1−(Foot-tapping period when test compound was administered)/(Foot-tapping period when solvent was administered)}×100 (2) Measurement of Drug Concentrations
(§2) In the table, Ex. No. means the Example number. Inhibition (%) is the foot-tapping inhibition rate, and Conc. (nM) is the drug concentration in the brain.

For data set [2], the target named is T1, CYP3A4 (Homo sapiens (Human), UniProt P08684). Nature of the data set: Inhibitory effect on CYP3A4 (Luciferin-IPA).
Description: Enzyme reaction was performed by incubating in a potassium phosphate buffer solution (pH 7.4) containing 1 nM to 20 μM test compound, 3.2 mM magnesium chloride, 0.2 pmol human CYP3A4 (BD Biosciences), 0.5 mM reduced nicotinamide adenine dinucleotide phosphate (NADPH) and 3 μM Luciferin-IPA (Promega) at 37° C. for 10 minutes. The volume of the reaction solution was 50 μL/well. The 30-minute pre-incubation group was incubated at 37° C. for 30 minutes before adding the substrate, the Luciferin-IPA solution (12.5 μL/well). At the end of the enzyme reaction, 50 μL/well of a Luciferin detection reagent (Promega) was added to the wells, and the plate was left at room temperature for 20 minutes. Then, the emission intensities were measured with Infinite M1000 (TECAN). The enzyme activities (%) relative to the value of the group to which the test compound was not added were calculated.
Data set [3] can be described thus: Measurement of drug concentrations in the brain after foot-tapping test. Conditions: male; 0.3 mg/kg iv, after foot-tapping was finished, gerbil brain; read-out: Conc. (drug concentration in the brain). The format is in vivo. The procedure:
as §1
After foot-tapping was finished, laparotomy was performed immediately under anesthesia with ether, and a blood sample was taken from the abdominal vena cava. At the same time, the brain was extracted. Through a quantitative analysis using liquid chromatography-mass spectrometry (LC/MS), the concentrations of the test compound in the plasma and the brain were measured.
as §2

For data set [4], the target named is T2, human NK1 receptor (Homo sapiens (Human), UniProt P25103). Nature of the data set: Inhibitory effect on human NK1 receptor (substance P-induced increase in intracellular calcium concentration). Conditions: HEK-293T; substance P 1 μM, compound 0.1 μM; human NK1 receptor-expressing 293T cells; read-out: SPRR (Substance P-Response Remaining). The format is cell-based. As to the method:
Inhibitory Effect on Human NK1 Receptor
(1) Preparation of Human NK1 Receptor-expressing Cells
Human NK1 receptor-expressing cells were prepared by the same methods as those described in 2-3 and 2-4 of Test Example 1.
(2) Study on Inhibitory Effect on Increase in Intracellular Calcium Concentration
The human NK1 receptor-expressing cells were washed with 300 μL/well of a washing solution (20 mM HEPES/Hank's Balanced Salt Solution (HBSS) […]). A fluorescent calcium indicator (Fluo-4 Direct Calcium Assay Kit, Life Technologies, containing 0.42 mM probenecid and 0.1% bovine serum albumin, prepared according to the protocol of the product) was added to the wells at 150 μL/well, and the plate was incubated at 37° C. for 30 minutes in an incubator. Then, DMSO solutions of a test compound, which were prepared at an 80-time higher concentration using 100% dimethyl sulfoxide (DMSO), were added to the wells at 2.5 μL/well (final concentrations of 0.1, 1 and 10 μM), and the solutions were mixed. Then, the plate was further incubated at 37° C. for 30 minutes in an incubator. After 30 minutes, the intracellular calcium concentrations were measured immediately.
The intracellular calcium concentrations were each measured as a fluorescent signal using FDSS (registered trademark) 7000 (Hamamatsu Photonics). A substance P (Peptide Institute, Inc.) solution which was prepared at 0.4 μM or 4 μM using an assay buffer (20 mM HEPES/Hank's Balanced Salt Solution (HBSS) pH 7.3, containing 0.1% bovine serum albumin) was added automatically to each well at 50 μL/well (final concentration of 0.1 or 1 μM) 10 seconds after starting reading, and the fluorescent signal was measured up to 120 seconds.
The intracellular calcium concentration (%) of the cells to which a test compound was added was calculated by the equation below, where the fluorescent signal of the group to which the vehicle (DMSO) was added was regarded as 100%, and the fluorescent signal before the addition of substance P was regarded as 0%. Intracellular calcium concentration(%)=(Fluorescent signal of test compound addition group)/(Fluorescent signal of vehicle addition group)×100
The intracellular calcium concentration (%) calculated was regarded as the remaining agonist activity of substance P (Substance P-Response Remaining: SPRR). In the table, Ex. No. means the Example number. SPRR (%) is the value obtained when the concentration of substance P was 1 μM and the concentration of the compound was 0.1 μM.
(Calcium flux is commonly read through the fluorescence of an indicator in the cells.)

In data set [5] the target is T2, human NK1 receptor. The data set is described as follows: Affinity for human NK1 receptor (125I-substance P receptor binding test). Conditions: membrane fraction of human NK1 receptor-expressing 293T cells; read-out: IC50 (concentration required for 50% inhibition of 125I-substance P binding). As to the method:
Affinity for Human NK1 Receptor
(3) Measurement of Binding Affinity to Human NK1 Receptor
(3-1) Preparation of Membrane Fraction from Human NK1 Receptor-expressing Cells
Human NK1 receptor-expressing cells were prepared in a 175 cm^2 culture flask (Nippon Becton Dickinson). The formation of a complex of the human NK1 receptor expression plasmid and Lipofectamine 2000 was performed by calculating the culture area ratio and increasing the scale of the method described in the above 2-4 by the ratio. The human NK1 receptor-expressing cells were collected in a buffer solution for the membrane fraction preparation (50 mM Tris (Wako Pure Chemical). 120 mM sodium chloride (Wako Pure Chemical Industries), 5 mM potassium chloride (Wako Pure Chemical Industries), 1 mM ethylenediaminetetraacetic acid (Sigma), 0.002 mg/mL chymostatin (Peptide Institute), 0.04 mg/ bacitracin (Wako Pure Chemical Industries), 0.005 mg/mL phosphoramidon (Peptide Institute) and 0.5 mM phenylmethylsulfonyl fluoride (Wako Pure Chemical Industries), pH7.4) and centrifuged at 1,880 g for 10 minutes, and the cell sediment was suspended in the buffer solution for the membrane fraction preparation. After freezing and thawing the cells once, the cells were homogenized using a Dounce-type homogenizer (cooled on ice, 1000 rpm, 20 times). The homogenized cell suspension was centrifuged at 20,000 rpm for 10 minutes, and the supernatant was removed to obtain cell sediment. The cell sediment was suspended again in the buffer solution for the membrane fraction preparation and homogenized using a Dounce-type homogenizer (cooled on ice, 1000 rpm, 30 times). The cell suspension was centrifuged at 20,000 rpm for 10 minutes, and the supernatant was removed to obtain cell sediment. The same homogenization and centrifugation were repeated again, and final cell sediment was obtained. The final cell sediment was suspended in a buffer solution for the receptor binding test (50 mM Tris (Wako Pure Chemical Industries), 3 mM manganese chloride (Wako Pure Chemical Industries), 0.002 mg/mL chymostatin (Peptide Institute), 0.04 mg/bacitracin (Wako Pure Chemical Industries) and 0.02% bovine serum albumin (Sigma), pH 7.4), and the protein concentration was measured using BCA Protein Assay Kit (Pierce).
(3-2) Receptor Binding Test
The buffer solution for the receptor binding test was dispensed to the wells of a 96-well assay plate (Greiner) at 22.5 μL/well. DMSO solutions of a test compound, which were prepared at an 80-time higher concentration using 100% dimethyl sulfoxide (DMSO), were added to the wells at 2.5 μL/well (final concentrations of 1 nM to 100 nM), and the solutions were mixed. As a radiolabeled ligand, ^125I-substance P (Substance P, [^125I]Tyr^8-, PerkinElmer) was used. ^125I-substance P was diluted with the buffer solution for the receptor binding test to a concentration resulting in […] and added to the 96-well assay plate, and the solutions were mixed. The membrane fraction prepared from the human NK1 receptor-expressing cells was diluted with the buffer solution for the receptor binding test to a concentration resulting in 8 to 10 μg/well, suspended until the suspension became in such a homogenous state that the suspension could flow through as 27G injection needle smoothly and then added to the 96-well assay plate at 150 μL/well. Then, the plate was incubated at room temperature for 60 minutes while shaking the plate. The reaction solutions were suction-filtered. through a multiscreen 96-well filter plate (Millipore) which had been pre-treated with 0.3% polyethyleneimine, and the reaction was terminated by washing with a washing solution (50 mM Tris and 0.02% bovine serum albumin, pH 7.4) four times. The bottom of the microplate was dried at 60° C., and then 100 μL/well of MicroScint 20 (PerkinElmer) was dispensed to the wells. The top of the plate was sealed with TopSeal A (PerkinElmer), and the plate was shaken for 5 to 10 minutes. […]

Data set [6] addresses T1, CYP3A4. Conditions: background literature; cited from earlier work.
Setting [7] is: read-out: IC50 (CYP3A4 inhibition), 30-minute pre-incubation group.

Here are results for ten molecules from patent publication US10100030B2 (Kissei Pharmaceutical Co., Ltd., priority 2013, dated 2018).

SMILES strings stand for the structures. pIC50: −log10 of the molar value. Like-named read-outs stand apart in the source and are kept apart here.

T2 sequence (P25103 whole entry): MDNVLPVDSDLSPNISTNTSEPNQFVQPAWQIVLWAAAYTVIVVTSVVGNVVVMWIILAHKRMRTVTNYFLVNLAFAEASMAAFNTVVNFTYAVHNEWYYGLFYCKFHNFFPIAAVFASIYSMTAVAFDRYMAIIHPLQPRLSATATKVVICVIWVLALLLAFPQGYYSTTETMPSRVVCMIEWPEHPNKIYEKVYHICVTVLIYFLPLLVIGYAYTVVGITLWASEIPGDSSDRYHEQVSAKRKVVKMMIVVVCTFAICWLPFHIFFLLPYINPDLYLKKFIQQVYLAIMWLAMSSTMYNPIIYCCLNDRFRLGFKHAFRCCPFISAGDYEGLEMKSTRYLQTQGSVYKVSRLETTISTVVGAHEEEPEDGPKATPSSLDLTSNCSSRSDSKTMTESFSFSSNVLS
Chain of NK1 receptor (Q5DUB1 whole entry): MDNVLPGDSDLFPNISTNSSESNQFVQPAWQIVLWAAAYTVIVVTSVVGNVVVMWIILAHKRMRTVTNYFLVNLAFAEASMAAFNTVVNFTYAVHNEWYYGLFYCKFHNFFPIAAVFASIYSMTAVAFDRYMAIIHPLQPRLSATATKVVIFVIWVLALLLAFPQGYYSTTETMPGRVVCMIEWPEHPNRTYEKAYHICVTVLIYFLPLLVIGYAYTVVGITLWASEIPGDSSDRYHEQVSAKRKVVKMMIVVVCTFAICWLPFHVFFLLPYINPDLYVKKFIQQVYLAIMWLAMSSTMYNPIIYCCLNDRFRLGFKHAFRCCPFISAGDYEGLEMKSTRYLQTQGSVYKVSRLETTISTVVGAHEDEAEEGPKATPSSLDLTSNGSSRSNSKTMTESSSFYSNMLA
T1 sequence (P08684 whole entry): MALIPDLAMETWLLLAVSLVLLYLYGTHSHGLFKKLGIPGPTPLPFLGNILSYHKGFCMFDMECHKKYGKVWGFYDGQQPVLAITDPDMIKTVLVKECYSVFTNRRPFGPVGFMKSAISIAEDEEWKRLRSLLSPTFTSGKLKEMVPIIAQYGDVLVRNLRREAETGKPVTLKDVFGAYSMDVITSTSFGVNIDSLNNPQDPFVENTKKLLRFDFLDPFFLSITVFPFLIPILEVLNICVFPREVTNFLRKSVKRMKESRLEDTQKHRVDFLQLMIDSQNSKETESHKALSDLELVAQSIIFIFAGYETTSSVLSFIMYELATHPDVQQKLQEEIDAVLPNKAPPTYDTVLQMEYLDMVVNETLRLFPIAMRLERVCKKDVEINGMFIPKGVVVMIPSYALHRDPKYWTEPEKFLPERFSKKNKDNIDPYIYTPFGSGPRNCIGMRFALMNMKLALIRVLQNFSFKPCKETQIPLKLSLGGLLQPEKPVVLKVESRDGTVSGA

On to `Cc1cc(F)ccc1-c1cc(N2CCC(CC(=O)O)C(C)C2)ncc1N(C)C(=O)C(C)(C)c1cc(C(F)(F)F)cc(C(F)(F)F)c1` (stereo not drawn) [Example 4], for which the “Inhibition (foot-tapping inhibition rate)” value (“Inhibition” below) in data set [1] is recorded as 100%. The pIC50 in data set [2] (setting [7]) is 5.32; in data set [5], 8.45. Further, the concentration at 4 h in data set [3] worked out at 0.179 µM. Also, in data set [4], the remaining activity at 0.1 µM is 16%.
On the same counts, the results for `COC1CN(c2cc(-c3ccc(F)cc3C)c(N(C)C(=O)C(C)(C)c3cc(C(F)(F)F)cc(C(F)(F)F)c3)cn2)CCC1CC(=O)O` (stereo not drawn) [Example 5, [5′-{[2-(3,5-Bistrifluoromethylphenyl)-2-methylpropionyl]methylamino}-4′-(4-fluoro-2-methylphenyl)-3-methoxyl-3,4,5,6-tetrahydro-2H-[1,2′]bipyridinyl-4-yl]acetic acid] are 97%, 5.26, 8.48, 0.111 µM and 49%.
With `Cc1cc(F)ccc1-c1cc(N2CCC(C)(CC(=O)O)CC2)nc(C#N)c1N(C)C(=O)C(C)(C)c1cc(C(F)(F)F)cc(C(F)(F)F)c1` [Example 10, [5′-{[2-(3,5-Bistrifluoromethylphenyl)-2-methylpropionyl]methylamino}-6′-cyano-4′-(4-fluoro-2-methylphenyl)-4-methyl-3,4,5,6-tetrahydro-2H-[1,2′]bipyridinyl-4-yl]acetic acid], the “Inhibition” value in data set [1] is 100%. In addition, the pIC50 is 5.42 in data set [2] (setting [7]) and 8.48 in data set [5]. The concentration at 4 h in data set [3] worked out at 0.219 µM.
For `Cc1cc(F)ccc1-c1cc(N2CCC(C)(CC(=O)O)CC2)ncc1N(C)C(=O)C(C)(C)c1cc(C(F)(F)F)cc(C(F)(F)F)c1` [Example 9], the pIC50 was 5.20 in data set [2] (setting [7]) and 8.55 in data set [5]. Further, the remaining activity at 0.1 µM in data set [4] turned out to be 6%.
Take `Cc1ccccc1-c1cc(N2CCC(CC(=O)O)CC2)ncc1N(C)C(=O)C(C)(C)c1cc(C(F)(F)F)cc(C(F)(F)F)c1` [Example 2, (5′-{[2-(3,5-Bistrifluoromethylphenyl)-2-methylpropionyl]methylamino}-4′-ortho-tolyl-3,4,5,6-tetrahydro-2H-[1,2]bipyridinyl-4-yl)acetic acid]: in data set [1], the “Inhibition” value was 81%. The results for the pIC50 in data set [2] (setting [7]) and in data set [5] were 4.89 and 8.60, respectively. In data set [3], the concentration at 4 h turned out to be 0.167 µM. For the same molecule, the remaining activity at 0.1 µM in data set [4] is 54%.
For `Cc1cc(F)ccc1-c1cc(N2CCC(C(C)(C)C(=O)O)CC2)ncc1N(C)C(=O)C(C)(C)c1cc(C(F)(F)F)cc(C(F)(F)F)c1` [Example 7, [5′-{[2-(3,5-Bistrifluoromethylphenyl)-2-methylpropionyl]methylamino}-4′-(4-fluoro-2-methylphenyl)-3,4,5,6-tetrahydro-2H-[1,2′]bipyridinyl-4-yl]-2-methylpropionic acid], the values for the pIC50 in data set [2] (setting [7]) and in data set [5] were 5.39 and 8.33, respectively. Besides, the remaining activity at 0.1 µM in data set [4] stood at 6%.
As to `C[C@@H](O[C@H]1OCCN(Cc2n[nH]c(=O)[nH]2)[C@H]1c1ccc(F)cc1)c1cc(C(F)(F)F)cc(C(F)(F)F)c1` [Aprepitant, aprepitant], the “inhibitory effect on CYP3A4 (reported)” value in data set [6] is reported as “dose-dependent inhibitory effect on CYP3A4”.
Turning to `Cc1cc(F)ccc1-c1cc(N2CCC([C@H](C)C(=O)O)CC2)ncc1N(C)C(=O)C(C)(C)c1cc(C(F)(F)F)cc(C(F)(F)F)c1` [Example 11, (S)-2-[5′-{[2-(3,5-Bistrifluoromethylphenyl)-2-methylpropionyl]methylamino}-4′-(4-fluoro-2-methylphenyl)-3,4,5,6-tetrahydro-2H-[1,2′]bipyridinyl-4-yl]propionic acid], the pIC50 in data set [2] is 5.31; in data set [5], 8.88. The remaining activity at 0.1 µM in data set [4] came to 7%.
In the case of `Cc1cc(F)ccc1-c1cc(N2CCC(CC(=O)O)C(C)(C)C2)ncc1N(C)C(=O)C(C)(C)c1cc(C(F)(F)F)cc(C(F)(F)F)c1` (stereo not drawn) [Example 3], in data set [1], the “Inhibition” value was determined as 100%. The pIC50 in data set [2] (setting [7]) is 5.43; in data set [5], 8.34. Further, in data set [3], the concentration at 4 h amounted to 0.262 µM. Moreover, the remaining activity at 0.1 µM in data set [4] turned out to be 13%.
`Cc1cc(F)ccc1-c1cc(N2CCC(CC(=O)O)CC2)nc(C#N)c1N(C)C(=O)C(C)(C)c1cc(C(F)(F)F)cc(C(F)(F)F)c1` [Example 6]: the “Inhibition” value in data set [1] is 100%. Further, the pIC50 was 5.59 in data set [2] (setting [7]) and 8.59 in data set [5]. In addition, the concentration at 4 h in data set [3] is 0.243 µM. Moreover, the remaining activity at 0.1 µM in data set [4] was 73%.
